PubChem BioAssay (NCI)
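48-hour exposure; five concentrations; linearly interpolated endpoints. GI50 is the concentration that inhibits growth by half. At the TGI there is no net growth.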

Columns and labels:
Experiment in all cases: NCI tumour cell line growth inhibition, 48 h
HCC-2998 colon = test system: HCC-2998 colon
RXF 393 renal = test system: RXF 393 renal
MDA-MB-231 breast = test system: MDA-MB-231 breast
SNB-19 CNS = test system: SNB-19 CNS
NCI-H460 lung = test system: NCI-H460 lung
U251 CNS = test system: U251 CNS
TK-10 renal = test system: TK-10 renal
SW-620 colon = test system: SW-620 colon
SF-539 CNS = test system: SF-539 CNS
IGROV1 ovarian = test system: IGROV1 ovarian
KM12 colon = test system: KM12 colon
LOX IMVI melanoma = test system: LOX IMVI melanoma
SF-268 CNS = test system: SF-268 CNS
NCI-H226 lung = test system: NCI-H226 lung
CAKI-1 renal = test system: CAKI-1 renal
DU-145 prostate = test system: DU-145 prostate
HL-60(TB) leukemia = test system: HL-60(TB) leukemia
COLO 205 colon = test system: COLO 205 colon
A549 NSCLC = test system: A549 NSCLC
HOP-92 NSCLC = test system: HOP-92 NSCLC
OVCAR-3 ovarian = test system: OVCAR-3 ovarian
MALME-3M melanoma = test system: MALME-3M melanoma
NCI/ADR-RES ovarian = test system: NCI/ADR-RES ovarian
HT29 colon = test system: HT29 colon
MOLT-4 leukemia = test system: MOLT-4 leukemia
T-47D breast = test system: T-47D breast
SR leukemia = test system: SR leukemia
786-0 renal = test system: 786-0 renal
SN12C renal = test system: SN12C renal
HOP-62 NSCLC = test system: HOP-62 NSCLC

O=C(CSc1nnc(-c2ccc(-c3nc4ccc(Cl)cc4[nH]3)cc2)o1)Nc1ccc(Br)cc1
GI50 (HCC-2998 colon): 15.3 µM | TGI (HCC-2998 colon): 46.5 µM | GI50 (RXF 393 renal): 1.98 µM | TGI (RXF 393 renal): 5.15 µM | GI50 (MDA-MB-231 breast): 1.76 µM | TGI (MDA-MB-231 breast): 3.59 µM | GI50 (SNB-19 CNS): 3.76 µM | TGI (SNB-19 CNS): 14.3 µM | GI50 (NCI-H460 lung): 2.34 µM | TGI (NCI-H460 lung): 6.32 µM | GI50 (U251 CNS): 1.88 µM | TGI (U251 CNS): 3.82 µM | GI50 (TK-10 renal): 16.5 µM | TGI (TK-10 renal): 33.4 µM | GI50 (SW-620 colon): 4.3 µM | TGI (SW-620 colon): 28.5 µM | GI50 (SF-539 CNS): 1.65 µM | TGI (SF-539 CNS): 3.08 µM | GI50 (IGROV1 ovarian): 8.27 µM | TGI (IGROV1 ovarian): 21.5 µM | GI50 (KM12 colon): 6 µM | TGI (KM12 colon): 31.8 µM | GI50 (LOX IMVI melanoma): 1.42 µM | TGI (LOX IMVI melanoma): 2.8 µM | GI50 (SF-268 CNS): 3.45 µM | TGI (SF-268 CNS): 16.8 µM | GI50 (NCI-H226 lung): 1.62 µM | TGI (NCI-H226 lung): 4.58 µM | GI50 (CAKI-1 renal): 2.34 µM | TGI (CAKI-1 renal): 7.01 µM | GI50 (DU-145 prostate): 4.56 µM | TGI (DU-145 prostate): 19.3 µM | GI50 (HL-60(TB) leukemia): 2.87 µM | TGI (HL-60(TB) leukemia): 11.5 µM | GI50 (COLO 205 colon): 24.5 µM | TGI (COLO 205 colon): > 100 µM | GI50 (A549 NSCLC): 1.79 µM | TGI (A549 NSCLC): 3.95 µM | GI50 (HOP-92 NSCLC): 2.43 µM | TGI (HOP-92 NSCLC): 9.03 µM | GI50 (OVCAR-3 ovarian): 3.72 µM | TGI (OVCAR-3 ovarian): 11.7 µM | GI50 (MALME-3M melanoma): 1.94 µM | TGI (MALME-3M melanoma): 4.84 µM | GI50 (NCI/ADR-RES ovarian): 4.93 µM | TGI (NCI/ADR-RES ovarian): 30.3 µM | GI50 (HT29 colon): 3.42 µM | TGI (HT29 colon): 13.3 µM | GI50 (MOLT-4 leukemia): 2.99 µM | TGI (MOLT-4 leukemia): 14.2 µM | GI50 (T-47D breast): 3.78 µM | TGI (T-47D breast): 20.2 µM | GI50 (SR leukemia): 1.67 µM | TGI (SR leukemia): > 100 µM | GI50 (786-0 renal): 2.23 µM | TGI (786-0 renal): 5.5 µM | GI50 (SN12C renal): 1.74 µM | TGI (SN12C renal): 4.09 µM | GI50 (HOP-62 NSCLC): 1.81 µM
